Experiments:
Format in all cases: cell-based
human CD8 T cells [1] = assay: Example 2: human CD8 T cell 10-day expansion with IL-2 and inhibitors, IL-2 after CD3/CD28 restimulation; settings: 300 nM Compound #10, 100 nM ZM-241385, CD3/CD28 bead restimulation 7 hours
Experimental: (§1) Purified human CD8 T cells were cultured in 24-well plates according to the following conditions per well: • 1 mL X-VIVO™ 15 media (Lonza) • 1 million human CD8 T cells • 2 million Human T-Activator CD3/CD28 Dynabeads® (ThermoFisher)
(§2) and the following individual conditions: • 1. DMSO vehicle control • 2. […] 300 nM GPR174 inhibitor Compound #10 • 4.
(§3) On days 4 and 7, cultures were washed and seeded at 0.5 million cells per well with the same GPR174 and A2A inhibitor conditions, and with 100 U/mL human IL-2.
After 7 hours of culture, supernatants were harvested and analyzed for IL-2 (MesoScale Discovery).

OT-I mouse CD8 T cells = assay: Example 1: OT-I CD8 T cell 10-day expansion with inhibitors, IL-2 after restimulation with EG7 cells; settings: 10-day expansion with IL-7+IL-15; 300 nM Compound #10, 100 nM ZM-241385; restimulated with EG7 cells without inhibitors, 6 hours
Experimental: Purified OT-I mouse CD8 T cells (StemCell mouse CD8 T cell purification kit) were cultured in 24-well plates with C57BL/6 mouse splenocytes (pre-treated with mitomycin C to prevent growth) and pOVA according to the following condition per well: • 2 mL RP10 media (RPMI, 10% fetal calf serum, 6 mM L-Glutamine, 12.5 mM HEPES, 50 μM 2-mercaptoethanol, Penicillin, Streptomycin) • 0.2 million OT-I CD8 T cells • 1.4 million mitomycin C treated splenocytes • 100 nM pOVA
and the following individual conditions: • 1. DMSO vehicle control • 2. 300 nM GPR174 inhibitor Compound #10 • 3.
On day 3, cultures were split 1:4 with new media, the inhibitors were added back to original conditions, and mouse IL-7 and mouse IL-15 were added to 10 ng/mL. On days 5 and 8, cells were washed once, counted, and replated at 0.5 million per well with IL-7 and IL-15 and the original inhibitor conditions. On day 10, cells were counted, washed twice with 12 mL RP10, and restimulated in quadruplicate with EG7 cells (H-2 K^b thymoma expressing OVA) in 96-well round bottom plates according to the following conditions: • 0.2 mL RP10; • 0.1 million OT-I T cells from each T cell expansion condition; and • 0.5 million EG7 cells.
Supernatants were collected after 6 hours and assayed for IL-2 levels (MesoScale Discovery platform).

human CD8 T cells [2] = assay: Example 4: human CD8 T cell expansion with GPR174, A2A, PKA or EPAC inhibitors, IL-2 after restimulation; settings: for IL-2 production following restimulation, fold increase vs vehicle (FIG. 6): 300 nM Compound #10, 100 nM ZM-241385, 500 μM Rp-8-Br-cAMPS, 5 μM ESI-09, 5.5 hours restimulation
Experimental: Purified human CD8 T cells were cultured in 24-well plates with the following conditions per well: • 2 mL X-VIVO™ 15 media (Lonza) • 0.4 million human CD8 T cells (Donor A) • 2 million Human T-Activator CD3/CD28 Dynabeads® (ThermoFisher) • 10 ng/mL human IL-7 (R&D Systems) • 10 ng/mL human IL-15 (R&D Systems)
and the following individual conditions, ±300 nM Compound #10: • 1. DMSO vehicle control • 2. […] 500 μM Rp-8-Br-cAMPS • 4. 5 μM ESI-09
On days 3, 5, and 7, cultures were washed and seeded at 0.5 cells million per well with the same small molecule inhibitor conditions, and with IL-7 and IL-15.
After 5.5 hours of culture, supernatants were harvested and analyzed for IL-2 content (MesoScale Discovery).

human CD8 T cells [3] = assay: Example 2: flow cytometry phenotype clusters (FlowSOM) of expanded human CD8 T cells; settings: 10-day culture; relative to vehicle control
Experimental: as §1, §2, §3
In addition to restimulation, expanded T cells were characterized by flow cytometry to evaluate expression of CCR7, CD39, CD69, TIGIT, CD45RA, LAG3, T-BET. The following detection reagents were used: anti-CD8 BV510, anti-CCR7 PE-Cy7, anti-CD39 BV605, anti-CD69 BV421, anti-TIGIT eFluor450, anti-CD45RA BV750, anti-LAG3 APC-Cy7, anti-T-BET PE-dazzle594 (all from Biolegend, Invitrogen, or BD Biosciences), and LIVE/DEAD™ Fixable Green Dead Cell Stain (ThermoFisher).
Data was collected with a Cytek Northern Lights flow cytometer, and was analyzed in FlowJo, in which automated clustering was performed on a concatenated file (containing all 4 culture conditions) with the FlowSOM plugin to generate 16 clusters. The abundance of each cluster in each cell sample was exported using the Cluster Explorer plugin.

human CD8 T cells [4] = assay: Example 3: human CD8 T cell 10-day expansion with IL-7+IL-15 and inhibitors, IL-2 after restimulation; settings: for IL-2 production following restimulation, fold vs vehicle control (FIG. 4): 300 nM Compound #10, 100 nM ZM-241385, 18 hours restimulation; for IL-2 production following restimulation, fold vs vehicle (FIG. 5): 300 nM Compound #10, 500 nM Compound #49, 100 nM ZM-241385, 18 hours restimulation
Experimental: Purified human CD8 T cells were cultured in 24-well plates with the following conditions per well: • 2 mL X-VIVO™ 15 media (Lonza) • 1 million human CD8 T cells • 2 million Human T-Activator CD3/CD28 Dynabeads® (ThermoFisher) • 10 ng/mL human IL-7 (R&D Systems) • 10 ng/mL human IL-15 (R&D Systems)
and the following individual conditions for FIG. 4: • 1. DMSO vehicle control • 2. […] 300 nM GPR174 inhibitor Compound #10 • 4.
On days 4 and 7 (FIG. 4) or days 3, 5, and 7 (FIG. 5), cultures were washed and seeded at 0.5 cells million per well with the same GPR174 and A2A inhibitor conditions, and with 10 ng/mL IL-7 and 10 ng/mL IL-15.
After 18 hours of culture, supernatants were harvested and analyzed for IL-2 (MesoScale Discovery).

SMILES | IL-2 production upon restimulation, fold increase vs vehicle (human CD8 T cells [1]) | IL-2 production following restimulation, fold above Vehicle (OT-I mouse CD8 T cells) [fold] | IL-2 production following restimulation, fold increase vs vehicle (FIG. 6) (human CD8 T cells [2]) | IL-2 production following restimulation, effect in the presence of Rp-8-Br-cAMPS (FIG. 6) (human CD8 T cells [2]; 300 nM Compound #10 added to 500 μM Rp-8-Br-cAMPS) | T cell phenotype clusters enriched or reduced (CD39, CD69, TIGIT, T-BET, LAG3, CCR7, CD45RA) (human CD8 T cells [3]) | IL-2 production following restimulation, fold vs vehicle control (FIG. 4) (human CD8 T cells [4]) | IL-2 production following restimulation, fold vs vehicle (FIG. 5) (human CD8 T cells [4])
CC1CCN(c2cc(N3CCN(S(=O)(=O)c4ccccc4)CC3)c([N+](=O)[O-])cc2F)CC1 [Compound 10] | 1.7 fold | 1.8 | negligible effect | did not enhance IL-2 production | displayed this same trend, albeit to a lesser degree | 3 fold | approximately 1.3 fold
Nc1nc(NCCc2ccc(O)cc2)nc2nc(-c3ccco3)nn12 [ZM-241385, ZM 241385] | did not alter IL-2 production |  | negligible effect |  | relatively unchanged | negligible | approximately 1.3 fold

From US20230285556A1, “METHODS AND COMPOSITIONS FOR TREATING CANCER” (Omeros Corporation, priority 2021, published 2023)
